Experimental data taken from ChEMBL document CHEMBL3132770, “4-Aminocyclopentane-1,3-diols as platforms for diversity: synthesis of a screening library” (Medchemcomm, 2014).

Experiments:
Assay type in all cases: functional, cell-based
MCF7 = experiment: Cytotoxicity against human MCF7 cells assessed as growth inhibition after 96 hrs by crystal violet staining assay; settings: MCF7, 96 h
[1] = Cytotoxicity against human LCLC-103H cells assessed as growth inhibition after 96 hrs by crystal violet staining assay
5637 = experiment: Cytotoxicity against human 5637 cells assessed as growth inhibition after 96 hrs by crystal violet staining assay; settings: Homo sapiens, 5637, 96 h
DAN-G = experiment: Cytotoxicity against human DAN-G cells assessed as growth inhibition after 96 hrs by crystal violet staining assay

SMILES | IC50 (MCF7) | IC50 [1] | IC50 5637 | IC50 (DAN-G)
O=C(CCC(=O)c1ccc(-c2ccccc2)cc1)N[C@@H]1C[C@H](OCc2ccccc2)C[C@H]1O (racemic) | 16 µM | > 20 µM | > 20 µM | > 20 µM
O=C(CCC(=O)c1ccc(-c2ccccc2)cc1)N[C@H]1C[C@H](OCc2ccccc2)C[C@@H]1O (racemic) | 14.2 µM | > 20 µM | 20.4 µM | > 20 µM
O=C(CCCc1c[nH]c2ccccc12)N[C@@H]1C[C@H](Oc2ccc(-c3ccccc3)cc2)C[C@H]1O (racemic) | 6.76 µM | 13.6 µM | 11.9 µM | 12.8 µM
O=C(N[C@@H]1C[C@H](Oc2ccc(-c3ccccc3)cc2)C[C@H]1O)C(c1ccccc1)c1ccccc1 (racemic) | 8.91 µM | 12.3 µM | 12.2 µM | 13 µM
O=C(N[C@H]1C[C@H](Oc2ccc(-c3ccccc3)cc2)C[C@@H]1O)C(c1ccccc1)c1ccccc1 (racemic) | 10.3 µM | 13.1 µM | 12.5 µM | 17.5 µM
O=C(O)CCCc1ccc(N(CCCl)CCCl)cc1 [CHLORAMBUCIL] | – | 14.5 µM | – | 27.8 µM
N[C@@H](Cc1ccc(N(CCCl)CCCl)cc1)C(=O)O [MELPHALAN] | – | 4 µM | 1.32 µM | –
